In patent US20250151724A1, “Liquid Soil Treatments Containing Choline” (Harrell's, LLC, priority 2023, published 2025):
Where two headings read alike, the source gives them in different places.

Tested on: 'A4' creeping bentgrass
Conditions: for Root Diameter / Root Length / Root Surface Area / Root Volume / Root Viability: end of trial; for Root Viability: TTC method
Source text: Mature ‘A4’ creeping bentgrass plugs (4″ diameter) were harvested from field plots and transplanted into 6-inch pots filled with a USGA (United States Golf Association) specification sand mix (fine sand with 10% calcined clay). The bentgrass was maintained at 15 mm and fertilized at 0.2 lb N/1,000 ft^2 at transplanting and then 0.15 lb N/1,000 ft^2 biweekly thereafter. After about 2 months of non-stressed growth with optimum temperature, water, fertilizer, and light, the pots were placed in a controlled environment growth chamber at 95° F. day (12 h)/77° F. night (12 h), light intensity at 400 μmol m^−2 s^−1, 12 h photoperiod, and 65% RH. Water was replaced 5 times weekly at 55% of measured evapotranspiration (ET). […] Four treatments were tested with 4 replications for each treatment. The choline chloride solution at the […] listed below was applied to the canopy at 2 gallons/1,000 ft^2 and the same amount of water was applied to the control (Treatment #1).
The treatments were as follows: • 1. Fertilized control (0.15 lb. Nitrogen (N) per 1,000 ft^2 every 14 days from 28-8-18 with UMAXX® fertilizer (Harrell's LLC, Lakeland, Florida) • 2. Choline at 0.125 oz./1,000 ft^2 biweekly+0.15 lb. N/1,000 ft^2 biweekly • 3. Choline at 0.25 oz./1,000 ft^2 biweekly+0.15 lb. N/1,000 ft^2 biweekly • 4. Choline at 0.5 oz./1,000 ft^2 biweekly+0.15 lb. N/1,000 ft^2 biweekly The rate and source of fertilization for treatments #2, 3, and 4 were the same as treatment #1 (fertilized control).
The stress period of the trial lasted for 8 weeks, and there was a total of 4 treatment applications. The following measurements/data were taken at day 0, 14, 28, 42, and 56: • a. Visual leaf color was rated on a 1-9 scale, with 1 indicating brown color and 9 indicating dark green color. • b. Photochemical efficiency was measured with chlorophyll fluorometer (OS-50II, Opti-Sciences, Inc., Hudson, NH). Three readings were collected from each pot and the average was used for statistical analysis. • c. Leaf chlorophyll content and carotenoids were extracted in acetone and measured with a spectrophotometer after incubation for 72 h. • d. Leaf proline content was determined based on the method of Bates et al. 1973 and as described by Wu et al. 2017. • e. Leaf antioxidant superoxide dismutase (SOD) activity was determined based on the method as described by Zhang et al. 2015. • f. Root viability, root samples were collected at the end of the trial and TTC method was used to measure root viability as described by Zhang et al., 2017. • g. Root growth characteristics (root length, root surface area, root diameter, root length density) were determined using WinRHIZO technology. • h. Root biomass of the whole pot was measured at day 56. For leaf chlorophyll, carotenoids, proline, and superoxide dismutase (SOD) activity, fresh samples were collected every two weeks and frozen with liquid and stored at −80° C. before lab analysis.

[1] = 0.125 oz/1000 ft^2 biweekly, day 0
[2] = 0.125 oz/1000 ft^2 biweekly, day 14
[3] = 0.125 oz/1000 ft^2 biweekly, day 28
[4] = 0.125 oz/1000 ft^2 biweekly, day 42
[5] = 0.125 oz/1000 ft^2 biweekly, day 56
[6] = 0.25 oz/1000 ft^2 biweekly, day 0
[7] = 0.25 oz/1000 ft^2 biweekly, day 14
[8] = 0.25 oz/1000 ft^2 biweekly, day 28
[9] = 0.25 oz/1000 ft^2 biweekly, day 42
[10] = 0.25 oz/1000 ft^2 biweekly, day 56
[11] = 0.5 oz/1000 ft^2 biweekly, day 0
[12] = 0.5 oz/1000 ft^2 biweekly, day 14
[13] = 0.5 oz/1000 ft^2 biweekly, day 28
[14] = 0.5 oz/1000 ft^2 biweekly, day 42
[15] = 0.5 oz/1000 ft^2 biweekly, day 56

Q: How did the Carotenoids [1] turn out when `C[N+](C)(C)CCO.[Cl-]` [Choline, choline chloride] was run?
A: 1.05a mg/g Fresh Weight

Q: And the Chlorophyll [1]?
A: 3.04a mg/g Fresh Weight

Q: And the “Leaf color (1-9, 9 = dark green)” value [1]?
A: 8.0a

Q: And the “Photochemical Efficiency (Fv/F^m)” value [1]?
A: 0.726a

Q: What about the Proline content [1] of the same compound?
A: 64.1a μg/g FW

Q: And the SOD activity [1]?
A: 909.7a Unit/g FW

Q: And the Carotenoids [2]?
A: 0.88b mg/g Fresh Weight

Q: And the Chlorophyll [2]?
A: 2.40c mg/g Fresh Weight

Q: What about the “Leaf color (1-9, 9 = dark green)” value [2] of the same compound?
A: 7.1ab

Q: What about the “Photochemical Efficiency (Fv/F^m)” value [2] of the same compound?
A: 0.659a

Q: And the Proline content [2]?
A: 170.7a μg/g FW

Q: And the SOD activity [2]?
A: 906.4a Unit/g FW

Q: What about the Carotenoids [3] of the same compound?
A: 0.76c mg/g Fresh Weight

Q: And the Chlorophyll [3]?
A: 2.16b mg/g Fresh Weight

Q: What about the “Leaf color (1-9, 9 = dark green)” value [3] of the same compound?
A: 6.0b

Q: What about the “Photochemical Efficiency (Fv/F^m)” value [3] of the same compound?
A: 0.668a

Q: And the Proline content [3]?
A: 156.5a μg/g FW

Q: And the SOD activity [3]?
A: 865.7ab Unit/g FW

Q: And the Carotenoids [4]?
A: 0.69a mg/g Fresh Weight

Q: And the Chlorophyll [4]?
A: 1.74ab mg/g Fresh Weight

Q: What about the “Leaf color (1-9, 9 = dark green)” value [4] of the same compound?
A: 6.3b

Q: And the “Photochemical Efficiency (Fv/F^m)” value [4]?
A: 0.611ab

Q: And the Proline content [4]?
A: 156.1ab μg/g FW

Q: What about the SOD activity [4] of the same compound?
A: 752.3bc Unit/g FW

Q: And the Carotenoids [5]?
A: 0.67b mg/g Fresh Weight

Q: What about the Chlorophyll [5] of the same compound?
A: 1.72ab mg/g Fresh Weight

Q: What about the “Leaf color (1-9, 9 = dark green)” value [5] of the same compound?
A: 6.0b

Q: What about the “Photochemical Efficiency (Fv/F^m)” value [5] of the same compound?
A: 0.596ab

Q: What about the Proline content [5] of the same compound?
A: 139.7b μg/g FW

Q: And the “Root Biomass” value [5]?
A: 1.269a g/pot

Q: And the SOD activity [5]?
A: 721.2bc Unit/g FW

Q: What about the “Root Diameter” value (0.125 oz/1000 ft^2 biweekly) of the same compound?
A: 0.161b mm

Q: And the “Root Length” value (0.125 oz/1000 ft^2 biweekly)?
A: 17.7ab cm/cm^3

Q: What about the “Root Surface Area” value (0.125 oz/1000 ft^2 biweekly) of the same compound?
A: 0.90ab cm^2/cm^3

Q: And the “Root Volume” value (0.125 oz/1000 ft^2 biweekly)?
A: 3.61ab cm^3/dm^3

Q: What about the “Root Viability” value (0.125 oz/1000 ft^2 biweekly) of the same compound?
A: 0.78ab A490/g FW

Q: What about the Carotenoids [6] of the same compound?
A: 1.03a mg/g Fresh Weight

Q: And the Chlorophyll [6]?
A: 2.95a mg/g Fresh Weight

Q: And the “Leaf color (1-9, 9 = dark green)” value [6]?
A: 8.0a

Q: And the “Photochemical Efficiency (Fv/F^m)” value [6]?
A: 0.726a

Q: And the Proline content [6]?
A: 63.1a μg/g FW

Q: What about the SOD activity [6] of the same compound?
A: 870.8a Unit/g FW

Q: And the Carotenoids [7]?
A: 1.02a mg/g Fresh Weight

Q: What about the Chlorophyll [7] of the same compound?
A: 2.76a mg/g Fresh Weight

Q: What about the “Leaf color (1-9, 9 = dark green)” value [7] of the same compound?
A: 7.4a

Q: What about the “Photochemical Efficiency (Fv/F^m)” value [7] of the same compound?
A: 0.672a

Q: What about the Proline content [7] of the same compound?
A: 177.4a μg/g FW

Q: And the SOD activity [7]?
A: 930.7a Unit/g FW

Q: And the Carotenoids [8]?
A: 0.94a mg/g Fresh Weight

Q: What about the Chlorophyll [8] of the same compound?
A: 2.75a mg/g Fresh Weight

Q: And the “Leaf color (1-9, 9 = dark green)” value [8]?
A: 6.6a

Q: What about the “Photochemical Efficiency (Fv/F^m)” value [8] of the same compound?
A: 0.645a

Q: What about the Proline content [8] of the same compound?
A: 162.3a μg/g FW

Q: And the SOD activity [8]?
A: 885.1a Unit/g FW

Q: What about the Carotenoids [9] of the same compound?
A: 0.84a mg/g Fresh Weight

Q: What about the Chlorophyll [9] of the same compound?
A: 2.10ab mg/g Fresh Weight

Q: What about the “Leaf color (1-9, 9 = dark green)” value [9] of the same compound?
A: 6.7a

Q: What about the “Photochemical Efficiency (Fv/F^m)” value [9] of the same compound?
A: 0.648a

Q: And the Proline content [9]?
A: 169.5a μg/g FW

Q: What about the SOD activity [9] of the same compound?
A: 872.3a Unit/g FW

Q: What about the Carotenoids [10] of the same compound?
A: 0.84a mg/g Fresh Weight

Q: What about the Chlorophyll [10] of the same compound?
A: 1.99a mg/g Fresh Weight

Q: And the “Leaf color (1-9, 9 = dark green)” value [10]?
A: 6.6a

Q: What about the “Photochemical Efficiency (Fv/F^m)” value [10] of the same compound?
A: 0.615a

Q: And the Proline content [10]?
A: 267.1a μg/g FW

Q: And the “Root Biomass” value [10]?
A: 1.273a g/pot

Q: And the SOD activity [10]?
A: 866.5a Unit/g FW

Q: What about the “Root Diameter” value (0.25 oz/1000 ft^2 biweekly) of the same compound?
A: 0.170ab mm

Q: And the “Root Length” value (0.25 oz/1000 ft^2 biweekly)?
A: 18.4a cm/cm^3

Q: And the “Root Surface Area” value (0.25 oz/1000 ft^2 biweekly)?
A: 0.98a cm^2/cm^3

Q: And the “Root Volume” value (0.25 oz/1000 ft^2 biweekly)?
A: 4.18a cm^3/dm^3

Q: And the “Root Viability” value (0.25 oz/1000 ft^2 biweekly)?
A: 1.28a A490/g FW

Q: What about the Carotenoids [11] of the same compound?
A: 1.07a mg/g Fresh Weight

Q: And the Chlorophyll [11]?
A: 3.07a mg/g Fresh Weight

Q: What about the “Leaf color (1-9, 9 = dark green)” value [11] of the same compound?
A: 8.0a

Q: And the “Photochemical Efficiency (Fv/F^m)” value [11]?
A: 0.718a

Q: What about the Proline content [11] of the same compound?
A: 53.5a μg/g FW

Q: And the SOD activity [11]?
A: 878.3a Unit/g FW

Q: And the Carotenoids [12]?
A: 0.98ab mg/g Fresh Weight

Q: And the Chlorophyll [12]?
A: 2.67ab mg/g Fresh Weight

Q: And the “Leaf color (1-9, 9 = dark green)” value [12]?
A: 7.4a

Q: And the “Photochemical Efficiency (Fv/F^m)” value [12]?
A: 0.690a

Q: And the Proline content [12]?
A: 180.0a μg/g FW

Q: What about the SOD activity [12] of the same compound?
A: 911.1a Unit/g FW

Q: What about the Carotenoids [13] of the same compound?
A: 0.91ab mg/g Fresh Weight

Q: And the Chlorophyll [13]?
A: 2.54ab mg/g Fresh Weight

Q: What about the “Leaf color (1-9, 9 = dark green)” value [13] of the same compound?
A: 6.8a

Q: What about the “Photochemical Efficiency (Fv/F^m)” value [13] of the same compound?
A: 0.661a

Q: And the Proline content [13]?
A: 167.1a μg/g FW

Q: And the SOD activity [13]?
A: 900.7a Unit/g FW

Q: What about the Carotenoids [14] of the same compound?
A: 0.84a mg/g Fresh Weight

Q: And the Chlorophyll [14]?
A: 2.18a mg/g Fresh Weight

Q: What about the “Leaf color (1-9, 9 = dark green)” value [14] of the same compound?
A: 6.9a

Q: What about the “Photochemical Efficiency (Fv/F^m)” value [14] of the same compound?
A: 0.659a

Q: What about the Proline content [14] of the same compound?
A: 171.8a μg/g FW

Q: And the SOD activity [14]?
A: 836.4ab Unit/g FW

Q: What about the Carotenoids [15] of the same compound?
A: 0.83a mg/g Fresh Weight

Q: And the Chlorophyll [15]?
A: 2.01a mg/g Fresh Weight

Q: What about the “Leaf color (1-9, 9 = dark green)” value [15] of the same compound?
A: 6.9a

Q: What about the “Photochemical Efficiency (Fv/F^m)” value [15] of the same compound?
A: 0.610a

Q: What about the Proline content [15] of the same compound?
A: 278.0a μg/g FW

Q: What about the “Root Biomass” value [15] of the same compound?
A: 1.270a g/pot

Q: And the SOD activity [15]?
A: 815.7ab Unit/g FW

Q: And the “Root Diameter” value (0.5 oz/1000 ft^2 biweekly)?
A: 0.176a mm

Q: What about the “Root Length” value (0.5 oz/1000 ft^2 biweekly) of the same compound?
A: 18.8a cm/cm^3

Q: What about the “Root Surface Area” value (0.5 oz/1000 ft^2 biweekly) of the same compound?
A: 0.99a cm^2/cm^3

Q: And the “Root Volume” value (0.5 oz/1000 ft^2 biweekly)?
A: 4.15a cm^3/dm^3

Q: What about the “Root Viability” value (0.5 oz/1000 ft^2 biweekly) of the same compound?
A: 1.10a A490/g FW
